Patent publication US8987193B2, “Nisin derivatives and the use thereof” (University College Cork—National University of Ireland, Cork, priority 2008, dated 2015)
Ends that are not written are not given here.

Experiments:
[1] = system: Staph. aureus ST528 (MRSA); assay: Deferred antagonism assay; format: cell-based; details: producing strain, diameter of zone minus diameter of bacterial growth (5 mm), average of duplicates
Method in brief: (§1)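 Producer strains replicated on GM17 agar, grown overnight, then overlaid with soft agar (0.75% w/v) seeded with indicator strain. Zone size = clearing diameter minus 5 mm growth diameter, relative to NZ9800 pCI372nisA control; mean of duplicates.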

[2] = system: Staph. aureus DPC5245; assay: Deferred antagonism assay; format: cell-based; details: producing strain; diameter of zone minus 5 mm; average of duplicates; St. aureus DPC5245
Method in brief: as §1

[3] = system: Strep. agalactiae ATCC13813; assay: Deferred antagonism assay; format: cell-based; details: producing strain, diameter of zone minus 5 mm, average of duplicates
[4] = system: L. plantarum CBC6; assay: Deferred antagonism assay; format: cell-based, Lactobacillus plantarum; set-up: key: + = Enhanced bioactivity relative to control; − = Bioactivity equal to or less than control; NA = no activity evident; details: producing strain
Method in brief: (§2)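 L. lactis NZ9800 strains expressing nisin A hinge variants were replicated or spotted on GM17 agar, grown overnight, then overlaid with 0.75% w/v agar seeded with indicator. Zone size is the clearing diameter minus 5 mm colony growth.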

[5] = system: C. sporogenes CBC5; assay: Deferred antagonism assay; format: cell-based, Clostridium sporogenes; set-up: key: + = Enhanced bioactivity relative to control; − = Bioactivity equal to or less than control; NA = no activity evident; details: producing strain
[6] = system: L. lactis CBC7; assay: Deferred antagonism assay; format: cell-based; set-up: key: + = Enhanced bioactivity relative to control; − = Bioactivity equal to or less than control; NA = no activity evident; details: producing strain
Method in brief: as §2

[7] = system: S. aureus CBC4; assay: Deferred antagonism assay; format: cell-based; set-up: key: + = Enhanced bioactivity relative to control; − = Bioactivity equal to or less than control; NA = no activity evident; details: producing strain
Method in brief: as §2

[8] = system: L. lactis CBC8; assay: Deferred antagonism assay; format: cell-based; set-up: key: + = Enhanced bioactivity relative to control; − = Bioactivity equal to or less than control; NA = no activity evident; details: producing strain
Method in brief: as §2

[9] = system: L. monocytogenes CBC2; assay: Deferred antagonism assay; format: cell-based, Listeria monocytogenes; set-up: key: + = Enhanced bioactivity relative to control; − = Bioactivity equal to or less than control; NA = no activity evident; details: producing strain; L. mono CBC2
Method in brief: as §2

[10] = system: L. monocytogenes CBC3; assay: Deferred antagonism assay; format: cell-based, Listeria monocytogenes; set-up: key: + = Enhanced bioactivity relative to control; − = Bioactivity equal to or less than control; NA = no activity evident; details: producing strain; L. mono CBC3
Method in brief: as §2

[11] = system: L. monocytogenes CBC1; assay: Deferred antagonism assay; format: cell-based, Listeria monocytogenes; set-up: key: + = Enhanced bioactivity relative to control; − = Bioactivity equal to or less than control; NA = no activity evident; details: producing strain; L. mono CBC1
Method in brief: as §2

[12] = system: indicator strains; assay: Deferred antagonism assays, various indicator strains (summary); format: cell-based; details: for Strain(s) against which the derivative (producing strain) displays enhanced bioactivity: relative to nisin A-producing control, value = strains listed
Method in brief: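 Producer strains were replicated on GM17 or GM17 x-gal agar, grown overnight, then overlaid with GM17, BHI, TS or MH soft agar (0.75% w/v) seeded with the indicator strain. Zone size was taken as the clearing diameter minus the diameter of bacterial growth (5 mm).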

Substance	zone size relative to that of the NZ9800 pCI372nisA control [1]	zone size relative to that of the NZ9800 pCI372nisA control [2]	zone size relative to that of the NZ9800 pCI372nisA control [3]	Bioactivity relative to control [4]	Bioactivity relative to control [5]	Bioactivity relative to control [6]	Bioactivity relative to control [7]	Bioactivity relative to control [8]	Bioactivity relative to control [9]	Bioactivity relative to control [10]	Bioactivity relative to control [11]	bioactivity of the producing strain, in words ([12]; in general / against the strains tested)	Strain(s) against which the derivative (producing strain) displays enhanced bioactivity [12]
NisinA M21N	95%	90%	98%	−	−	−	−	+	−	−	−	approximately wild type bioactivity	L. lactis CBC8
NisinA N20A	60.5%	69%	52%	−	+	−	−	−	−	−	−		C. sporogenes CBC5
NisinA N20F (ITSISLCTPGCKTGALMGCFMKTATCHCSIHVSK; not fully specified; also: lantibiotic nisin: dehydrated residues and thioether rings not placed; UniProt P13068 24-57, looked up, variant N20F) [nisin A derivative, hinge substitution N20F]	11.25%	20.5%	15%	−	−	+	−	−	−	−	−		L. lactis CBC7
NisinA N20H (ITSISLCTPGCKTGALMGCHMKTATCHCSIHVSK; not fully specified; also: lantibiotic nisin: dehydrated residues and thioether rings not placed; UniProt P13068 24-57, looked up, variant N20H) [nisin A derivative, hinge substitution N20H]	74.5%	95%	59.5%	−	+	−	+	−	−	+	−		L. monocytogenes CBC3, S. aureus CBC4 and C. sporogenes CBC5
